The text below walks through data of patent publication US20100041704A1, “DERMAL COMPOSITIONS OF SUBSTITUTED AMIDES AND THE USE THEREOF AS MEDICATION FOR PAIN AND PRURITUS” (priority 2007, published 2010).

Counter-ions that a name gives are not always drawn.

Series [1] can be described thus: saturation solubility in topical solvents/penetration enhancers. It counts as physicochemical. On the procedure:
Melting point ranges were determined with a capillary apparatus (Stuart) using a heating rate of 1° C./min. Moisture was measured using Karl Fischer titration (Schott TitroLine KF). Solubility was measured by adding an excess of solid to the solvent and allowing this suspension to equilibrate at 19-21° C. for at least 24 hours. […]
Solubility was measured by adding an excess of solid to the solvent and allowing this suspension to equilibrate at 19-21° C. for at least 24 hours. […]

Series [2] relates to New Zealand White rabbits (skin). Nature of the series: dermal irritation studies. It counts as in vivo, rabbit. Conditions: DMSO at lower concentrations (<90%) in combination with bupivacaine or ropivacaine. On the procedure:
Dermal irritation studies are performed in male and female New Zealand White rabbits (Harlan). This albino rabbit is recommended as the preferred species because of its size, skin permeability and extensive database. The number of animals being used in these studies is consistently increasing as new compositions are tested and previously tested compositions are being retested as references. Within 24 hours before the initiation of the test, fur is removed from the upper and lower dorsal trunks by clipping. Care is taken to avoid abrading the skin and only animals with healthy intact skin are being used. Histamine is used as the pruritic irritant. The compositions to be tested are applied to the skin of the animals for 60 min (±5 min). The new compositions, with or without bupivacaine 5 to 10 percent, are applied on 6-ply gauze pads (4.5 cm×4.5 cm) and held in place with Tegaderm® dressing for the entire exposure duration. After the exposure period, residual test article is removed with water or other appropriate solvent, without altering the existing response or the integrity of the epidermis. Prior to dosing and repeatedly post dosing, dermal irritation is scored for erythema/eschar and edema.

Series [3] in a line: ternary solvent mixtures with water as anti-solvent. The class given is physicochemical. Conditions: 1 ml polyethylene glycol + 1 ml ethanol, presence of 0.6 ml water.
Series [4] has as its system sciatic nerve. The series is described as follows: sciatic nerve block in the rat, duration by algesimeter. It counts as in vivo. As to conditions: for duration of sensory nerve block / local anesthesia: injection of 0.5% solution, N=10-12.
Series [5] concerns human leukocytes (buffy coat). Nature of the series: inhibition of A23187-stimulated histamine release from human leukocytes. As to conditions: A23187 5 μM, 20 min/37° C. It counts as cell-based. Here is the method: In the present studies, histamine was the marker compound for algesic mediators that are released into the tissues of patients suffering from neuropathic pain. The inhibition of stimulated histamine release from human leukocytes (buffy coat) by test articles was studied. Leukocytes were obtained from healthy volunteers and histamine release was induced by incubation (20 min/37° C.) with the calcium ionophore A23187 (5 μM) in the presence or absence of a test article. Histamine was analyzed by enzyme-immuno assays, using commercially available kits and a microplate reader (MRX, Dynatech).

Series [6] concerns guinea pigs (dermal anesthesia). The series is described as follows: potentiation study: dermal anesthesia in guinea pigs, pinprick methodology. The class given is in vivo. Conditions: guinea pigs N=8.
Series [7] in a line: saturation solubility in pentane (model propellant). The class given is physicochemical. As to conditions: base. The text has this:
In addition to the solubility experiments shown above, the solubilities of bupivacaine and ropivacaine were also investigated using pentane since this is a low molecular weight hydrocarbon, commonly used to model a GRAS (generally recognized as safe) aerosol propellant such as butane.

Series [8] relates to nerve ligation model in the rat (L5 and L6 spinal roots of the sciatic nerve). Nature of the series: nerve ligation model of neuropathic pain in the rat (tail flick, pinprick allodynia). Conditions: for activity in animal model of neuropathic pain: rat nerve ligation model. It counts as in vivo.
Series [9] relates to mice with diet-induced pruritus. Nature of the series: pruritus model: mice fed diet low in Mg2+ and Zn2+, scratching. Conditions: mouse, in vivo.
The conditions of series [10]: concentrations up to 0.075 percent (Mason L et al. 2004); cited from earlier work.
[11] abbreviates: in ethanol, 19-21° C., at least 24 hours, HPLC.
Setting [12] is: in hexylene glycol, 19-21° C., at least 24 hours, HPLC.
Setting [13] is: in isopropyl alcohol, 19-21° C., at least 24 hours, HPLC.
Where [14] appears, read: in propylene glycol, 19-21° C., at least 24 hours, HPLC.
Setting [15] is: in diisopropyl adipate, 19-21° C., at least 24 hours, HPLC.
Setting [16] is: in isopropyl myristate, 19-21° C., at least 24 hours, HPLC.

As to `CCCCN1CCCCC1C(=O)Nc1c(C)cccc1C.Cl.O` (racemic) [Racemic HCl monohydrate], the “Solubility of bupivacaine (% w/w)” value in series [1] (setting [11]) turned out to be 4.3 % w/w; in series [1] (setting [12]) it was 2.1 % w/w; in series [1] (setting [13]) it was 0.5 % w/w; in series [1] (setting [14]), 3.2 % w/w.

`CCCCN1CCCCC1C(=O)Nc1c(C)cccc1C` (racemic) [Racemic free base]: the “Solubility of bupivacaine (% w/w)” value in [1] (setting [15]) was 6.2 % w/w; in series [1] (setting [11]) it was 36.8 % w/w; in series [1] (setting [12]), 17.8 % w/w; in series [1] (setting [13]), 20.5 % w/w; in series [1] (setting [16]), 3.5 % w/w; in [1] (setting [14]), 4.8 % w/w.

On to `CCCCN1CCCC[C@H]1C(=O)Nc1c(C)cccc1C` (single isomer, unassigned) [Isomer HCl monohydrate], for which, in series [1] (in ethanol, determined gravimetrically), the “Solubility of bupivacaine (% w/w)” value was 3.8-4.4^1 % w/w.

In the case of `CCCCN1CCCC[C@H]1C(=O)Nc1c(C)cccc1C` (single isomer, unassigned) [Isomer free base], the “Solubility of bupivacaine (% w/w)” value was found to be 2.7 % w/w in series [1] (setting [15]); 16.5 % w/w in series [1] (setting [11]); 8.0 % w/w in [1] (setting [12]); 8.9 % w/w in series [1] (setting [13]); 1.6 % w/w in series [1] (setting [16]); 2.1 % w/w in series [1] (setting [14]).

Turning to `C[S+](C)[O-]` [DMSO, Dimethyl sulfoxide], the “dermal irritation of DMSO with local anesthetic” value in [2] is on record as “do not cause increased dermal irritation”.

Take `CCCN1CCCC[C@H]1C(=O)Nc1c(C)cccc1C` [S-ropivacaine free base]: the “Solubility, % w/w” value in [1] (S-ropivacaine free base in diisopropyl adipate, 19-21° C., at least 24 hours) is 1.7 % w/w; in [1] (S-ropivacaine free base in ethanol, 19-21° C., at least 24 hours), 10.0 % w/w; in series [1] (S-ropivacaine free base in hexylene glycol, 19-21° C., at least 24 hours), 5.1 % w/w; in series [1] (S-ropivacaine free base in isopropyl alcohol, 19-21° C., at least 24 hours), 5.2 % w/w; in series [1] (S-ropivacaine free base in isopropyl myristate, 19-21° C., at least 24 hours), 0.9 % w/w; in series [1] (S-ropivacaine free base in propylene glycol, 19-21° C., at least 24 hours), 1.6 % w/w. Moreover, in series [1] (all solvents of Table 6), the “solubility compared with bupivacaine free base” value was “consistently lower”. The “solubility in ternary solvent mixture with water as anti-solvent” value in [3] is “dramatically decreased”.

Consider `CCCCN1CCCCC1C(=O)Nc1c(C)cccc1C` (stereo not shown) [bupivacaine HCl], for which the “duration of sensory nerve block” value in [4] (injection of 0.25% solution, algesimeter (5 gram), rat) stood at 70 ± 5 min. For the same molecule, in series [4] (algesimeter (5 gram), rat), the “duration of sensory nerve block / local anesthesia” value is 99 ± 7 min.

Regarding `CCCCN1CCCCC1C(=O)Nc1c(C)cccc1C` (stereo not shown) [bupivacaine, RS—N-(2,6-dimethylphenyl)-1-butylpiperidine-2-carboxamide], in [5], the “inhibition of stimulated histamine release” value is “significant inhibitory activity” and the “potency on histamine release compared with lidocaine” value is “more potent than lidocaine”. In addition, the “duration of dermal anesthesia” value in [6] (5% in DMSO/water in a dermal patch, applied for 60 min, pinprick) stood at 60 ± 5 min. In addition, the “Saturation solubility in pentane” value in series [7] is over 0.1%. In addition, in series [4] (after injections, doses as low as), the “dose causing motor nerve blocks after injections” value is reported as at least 0.1%. For the same molecule, the “duration of analgesic activity compared with lidocaine” value in series [8] (neuropathic pain model, single administration) is on record as “longer duration than that offered by lidocaine”. Further, in series [8] (repeated administrations), the “pain relief after repeated administrations” value is listed as “long-lasting (days not hours) pain relief”. Also, the “anti-allodynic effect (paw withdrawal, pinprick)” value in series [8] (single systemic administration (0.5%), algesimeter set at 5 grams) is “prolonged anti-allodynic effect”. The “analgesia, tail-flick test method” value in [8] (single systemic administration of bupivacaine (0.5%) three days after nerve ligation, tail flick in warm (140° F.) water) came to 100%. The “antipruritic activity / safety and efficacy in animal model of pruritus” value in series [9] is on record as “antipruritic activity”.

As to `COc1cc(CNC(=O)CCCC/C=C/C(C)C)ccc1O` [capsaicin], the “dermal anesthesia (in words)” value in series [6] (capsaicin alone, low dose) was “too low to result in measurable dermal anesthesia”. Further, the “efficacy of dermal capsaicin” value in series [10] is “only marginally effective”.

Consider `CCN(CC)CC(=O)Nc1c(C)cccc1C` [lidocaine], for which the “duration of sensory nerve block / local anesthesia” value in series [4] (algesimeter (5 gram), rat) was “approximately 40 min”. Also, in series [8], the “activity in animal model of neuropathic pain” value is given as “had activity”.

For `Cc1cccc(C)c1NC(=O)C1CCCCN1C` (stereo not shown) [mepivacaine], the “duration of sensory nerve block / local anesthesia” value in series [4] (algesimeter (5 gram), rat) is “approximately 40 min”.

As to `CCCN1CCCCC1C(=O)Nc1c(C)cccc1C` (stereo not shown) [ropivacaine, RS—N-(2,6-dimethylphenyl)-1-propylpiperidine-2-carboxamide], the “Saturation solubility in pentane” value in series [7] is over 0.1%. Also, in [8], the “activity in animal model of neuropathic pain” value is recorded as “had activity”. Further, the “antipruritic activity / safety and efficacy in animal model of pruritus” value in series [9] was “antipruritic activity”.
